Values of other authors in patent publication US6465677B1, “Method for the preparation of N-neohexyl-α-aspartyl-L-phenylalanine methyl ester from imidazolidin-4-one intermediates” (The NutraSweet Company, priority 1998, dated 2002).

Conditions: on a weight basis

## COC(=O)[C@H](Cc1ccccc1)NC(=O)[C@H](CC(=O)O)NCCC(C)(C)C [neotame, N-[N-(3,3-dimethylbutyl)-L-α-aspartyl]-L-phenylalanine 1-methyl ester]
  sweetness relative to sucrose: approximately 8,000 times as sweet as sucrose
